Laboratory results as given in patent US6770740B1, “Crosslinked DNA condesate compositions and gene delivery methods” (The Regents of the University of Michigan, priority 1999, dated 2004).
Where a SMILES comes first, the peptide text is derived from it. Where no end group is shown, it is not given here. Side-chain parts run from the residue outwards. vinylsulfone = vinylsulfone linkage of the PEG to the cysteine sulfhydryl (non-reducible, from PEG-vinylsulfone)

What was measured:
[1] = Serum stability of DNA condensates in DNase I augmented mouse serum; type: in vitro ADME; conditions: 50% serum containing 0.12 units of DNase I, 37° C.
Experimental: DNA condensates (100 μL) were combined with 100 μL of DNase I augmented mouse serum (0.12 U of DNase I per 100 μl serum) and 3 μL of 5 M sodium chloride to bring the final salt concentration to 150 mM. Samples were incubated at 37° C. for 3 h while rapidly freezing 20 μL aliquots at time points ranging from 0 to 180 min. Serum samples were processed by adding 3 μL (0.31 U) of proteinase K and then incubated at 37° C. for 30 min to remove endonuclease activity. Sodium chloride was then added (4.6 μL of 5 M) along with trypsin (3 μL containing 7 U) and allowed to digest for 12 h at 37° C. to remove the crosslinked peptide. Samples were applied to a 1% agarose gel containing 0.05% SDS and electrophoresed as described above.

HepG2 cells [2] = assay: Cytotoxicity in cell culture: total protein of cell homogenates 24 h after transfection; type: cell-based; conditions: 1-4 mol equivalents of glutaraldehyde corresponding to 1.5-6 μM
Experimental: HepG2 cells (3×10^5) were plated on 6×35 mm wells and grown for 48 h to 40% confluence in MEM supplemented with 10% fetal calf serum (FCS). Crosslinked DNA condensates (10 μg of DNA in 200 μL) were transfected in triplicate by drop wise addition to cells in 2% FCS either with or without 80 μM chloroquine followed by 5 h incubation, after which the media was replaced with 2 mL of MEM containing 10% fetal calf serum and allowed to incubate for an additional 19 h. Wells were sampled for 10 days at 24 h intervals by removing and freezing (−20° C.) the media and replacing it with 2 mL of fresh 10% FCS MEM.
The cytotoxity of both free glutaraldehyde and crosslinked DNA condensates were examined in cell culture. The total protein of cell homogenates harvested 24 h after transfecting cells in the presence of free glutaraldehyde or crosslinked DNA condensates were indistinguishable from control, indicated no toxicity when using 1-4 mol equivalents of glutaraldehyde corresponding to 1.5-6 μM.

[3] = Particle size and zeta potential of peptide DNA condensates after freeze-drying and rehydration, Example 2; type: physicochemical; conditions: no sucrose
Experimental: The concentration of AlkCWK18 and PEG-CWK18 were determined by UV absorbance (Trp, ε280 nm=5,600 M^−1 cm^−1). Peptide DNA condensates were prepared in 5 mM Hepes pH 5 at a peptide/DNA stoichiometry of 0.3 nmol of peptide/μg of DNA. The condensates were formed by adding 450 μL of 100 μg/mL NT-βGal drop wise to 450 μL of 30 nmol/mL AlKCWK18 or PEG-CWK18 while vortexing. Each sample was prepared in triplicate, and after a 30 min equilibration, 20-100 μL of 50 wt/vol % solutions of either glucose, mannitol, galactose, dextran or sucrose were added followed by normalization to 1 mL to give a final sugar concentration of 1-5 wt/vol % and DNA concentration of 50 μg/mL.
The mean particle size of 50 μg/mL AlkCWK18 DNA condensates were determined by quasielastic light scattering (QELS) on a Brookhaven ZetaPlus™. Samples (1 mL) were frozen rapidly in dry ice ethanol in a 1.5 mL microcentrifuge tube and then lyophilized on a Labconco™ freeze dryer for 24 h operated at a constant vacuum of 55×10^−6 mBar while maintained at room temperature (22° C.). The maximal vacuum was achieved within 2 min after applying the sample.
At the highest sucrose concentration of 5 wt/vol %, samples remained frozen throughout freeze-drying but dried to form a glassy solid after 24 h. […] Freeze-dried samples prepared in triplicate were reconstituted in 1 mL of deionized water, allowed to equilibrate for 30 min and then analyzed by QELS as described above. Large peptide DNA condensates were measured by light microscopy with magnification of 100X. The particle size of PEG-peptide DNA condensates were also measured by transmission electron microscopy (TEM) according to a published procedure (Wadhwa et al., 1997).
The relationship between pH and rehydrated peptide DNA condensate particle size was examined in 5 mM Hepes at a pH range of 3-7. The particle size of 50 μg/mL DNA condensates in 5 wt/vol % sucrose was determined by QELS before and after freeze-drying as described above.
The rehydrated particle size of AlkCWK18 or PEG-CWK18 DNA condensates were also examined at a concentration of 0.05-5 mg/mL in 5 mM Hepes pH 5 with (AlkCWK18 DNA) or without (PEG-CWK18 DNA) the addition of 5 wt/vol % sucrose. DNA condensates were freeze-dried and reconstituted to the original concentration. QELS particle size analysis before and after freeze-drying required dilution of an aliquot of the sample to concentration of 50 μg/mL. Freeze-dried 5 mg/mL PEG-CWK18 DNA condensates were also reconstituted in 0.9 wt/vol % sodium chloride and analyzed for particle size.

HepG2 cells [4] = assay: Cell binding of 125I-DNA condensates, Example 1; type: cell-based; conditions: 5 h transfection, 10 μg 125I-DNA condensates
Experimental: Iodinated plasmid DNA was prepared with specific activity of 300 nCi per μg of DNA as described previously (Teribesi et al., 1998). Prior to forming DNA condensates, the specific activity of the ^125I DNA was adjusted to 4.5 nCi per μg of DNA by combining with unlabeled plasmid. DNA condensates were prepared using AlkCWK18, PEG-SS-CWK18 or PEG-VS-CWK18 as described above. Peptide ^125I-DNA condensates (10 μg) were used to transfer HepG2 cells for 5 h according to the procedure described above. The radioactive media was removed, cells were washed with phosphate buffered saline, harvested with lysis buffer, and the cell-associated radioactivity was quantified by gamma counting.

[5] = Solubility of peptide DNA condensates: particle size as a function of DNA concentration; type: physicochemical; conditions: throughout DNA concentrations 0.05-2 mg/ml
[6] = QELS particle size and zeta potential of PEG-peptide DNA condensates and co-condensates, Example 1; type: physicochemical
Experimental: The particle size of peptide DNA condensates were analyzed at a DNA concentration of 50 μg/ml in Hepes by quasielastic light scattering (QELS). The particle surface change was determined by zeta potential analysis using a Brookhaven ZetaPlus™ (Brookhaven Instruments).
DNA co-condensates were prepared by add-mixing AlkCWK18 and PEG-VS-CWK18 in ratios ranging from 0 to 100 mol %, and condensing DNA at a charge ratio of 2.3:1 as described above. To establish the mol ratio of peptides bound to DNA, condensates were dialyzed in a fixed volume (0.5 ml) dialyzer for 75 h against water using a 100,000 MWCO membrane. Peptide DNA condensates in the retentate (0.5 ml) were dissociated by adding 50 μl of 5 M sodium chloride in 0.1% TFA. AlkCWK18 and PEG-VS-CWK18 were quantified by injecting 1 nmol of peptide (100 μl) onto analytical RP-HPLC eluted with 0.1% TFA and a gradient of acetonitrile (5 to 65% over 30 min) while detecting tryptophan by fluorescence (λex 280 nm, λem 350 nm). The peak integration areas were used to quantify AlkCWK18 and PEG-VS-CWK18 with reference to standard curves developed for each peptide.

HepG2 cells [7] = assay: In vitro luciferase gene expression, Example 1; type: cell-based; conditions: HepG2, 24 h post-transfection, 10 μg DNA, 80 μM chloroquine
Experimental: HepG2 cells were plated at 1.5×10^5 cells per 35 mm well and grown to 40-70% confluence in MEM supplemented with 10% fetal calf serum (FCS). Peptide DNA condensates (10 μg of DNA) were added dropwise to triplicate sets of cells in 2% FCS containing 80 μM chloroquine. After 5 h incubation at 37° C., the media was replaced with MEM supplemented with 10% FCS, and luciferase expression was determined at 24 h. Cells were washed twice with ice-cold phosphate buffered saline (calcium and magnesium free) and then treated with 0.5 ml of ice-cold lysis buffer (25 mM Tris hydrochloride pH 7.8, 1 mM EDTA, 8 mM magnesium chloride, 1% Triton X-100, 1 mM DTT) for 10 min. The cell lysate was scraped, transferred to 1.5 ml micro centrifuge tubes, and centrifuged for 7 min at 13,000 g at 4° C. to pellet debris.
Lysis buffer (300 μl), sodium-ATP (4 μl of a 180 mM solution, pH 7, 4° C.) and cell lysate (100 μl, 4° C.) were combined in a test tube, briefly mixed and immediately placed in the luminometer. Luciferase relative light units (RLU) were recorded on a Lumat™ LB 9501 (Berthold Systems, Germany) with 10 sec integration after automatic injection of 100 μl of 0.5 mM D-luciferin (prepared fresh in lysis buffer without DTT). […]

plasmid DNA = assay: Fluorescent dye (thiazole orange) displacement assay of peptide binding to DNA, Example 1; conditions: corresponding to a charge ratio of 1.8:1
Experimental: Peptide DNA condensates were formed by adding 75 μg of DNA (pCMVL in 750 μl of 5 mM Hepes pH 7.4) to varying amounts of peptide (7.5 to 90 nmol in 750 μl of Hepes) while vortexing, followed by equilibration at RT for 1 h. Peptide binding to DNA was monitored by a fluorescent dye displacement assay (Wadhwa et al. 1997). A 1 μg aliquot of the peptide DNA condensate was diluted to 1 ml in Hepes containing 0.1 μM thiazole orange. The fluorescence of the intercalated dye was measured on an LS50B fluorimeter (Perkin Elmer, UK) in a microcuvette by exciting at 500 nm while monitoring emission at 530 nm.

## NCCCC[C@H](NC(=O)[C@H](CCCCN)NC(=O)[C@H](CCCCN)NC(=O)[C@H](CCCCN)NC(=O)[C@H](CCCCN)NC(=O)[C@H](CCCCN)NC(=O)[C@H](CCCCN)NC(=O)[C@H](CCCCN)NC(=O)[C@H](CCCCN)NC(=O)[C@H](CCCCN)NC(=O)[C@H](CCCCN)NC(=O)[C@H](CCCCN)NC(=O)[C@H](CCCCN)NC(=O)[C@H](CCCCN)NC(=O)[C@H](CCCCN)NC(=O)[C@H](CCCCN)NC(=O)[C@H](CCCCN)NC(=O)[C@H](CCCCN)NC(=O)[C@H](Cc1c[nH]c2ccccc12)NC(=O)[C@@H](N)CS)C(=O)O [CWK18, Cys-Trp-Lys18] (H-CWKKKKKKKKKKKKKKKKKK-OH; N-terminus and C-terminus assumed)
[1]
  time of stability of DNA before metabolism into oligonucleotides: 60 min

## O=CCCCC=O [glutaraldehyde]
HepG2 cells [2]
  cytotoxicity: no toxicity

## PEG-VS-CWK18: non-reducible PEG-peptide from PEG-vinylsulfone (5 kDa) and the sulfhydryl of CWK18 (C([vinylsulfone-PEG 5 kDa])WKKKKKKKKKKKKKKKKKK)
[3]; 5 mg/mL DNA
  particle diameter of freeze-dried and rehydrated DNA condensates by TEM: less than 100 nm
[3]; rehydrated in water or normal saline
  DNA concentration up to which particle size was retained on rehydration: 5 mg/mL
HepG2 cells [4]
  cell associated 125I-DNA, percent of dose: 0.2%
[5]
  mean diameter of DNA condensates: < 100 nm
[6]; charge ratio 1.8:1
  zeta potential of DNA condensates: +10 mV
[6]; charge ratio of 1.8:1 or higher, 50 μg/ml DNA in Hepes
  mean diameter of DNA condensates: 90 nm
HepG2 cells [7]
  reduction of spontaneous gene transfer (luciferase expression) relative to AlkCWK18 DNA condensates: 1000 fold
Plasmid DNA
  peptide:DNA stoichiometry at the asymptote of the dye displacement titration curve (relative DNA binding affinity): 0.3 nmol per μg of DNA
